These results are taken from patent US7414142B2 (Wyeth, priority 2005, dated 2008).

One experiment has as its system T47D cells. Put plainly: T47D cell proliferation assay (BrdU incorporation). It counts as cell-based. As to the method: (a) Objective: Determination of progestational and antiprogestational potency by using a cell proliferation assay in T47D cells. A compound's effect on DNA synthesis in T47D cells is measured.
A. Reagents • (i) Growth medium: DMEM:F12 (1:1) (GIBCO, BRL) supplemented with 10% (v/v) fetal bovine serum (not heat-inactivated), 100U/mL penicillin, […] streptomycin, and 2 mM GlutaMax™ media (GIBCO, BRL). • (ii) Treatment medium: Minimum Essential Medium (MEM) (#51200-038GIBCO, BRL) phenol red-free supplemented with 0.5% charcoal stripped fetal bovine serum, 100U/mL penicillin, […] streptomycin, and 2 mM GlutaMax™ media (GIBCO, BRL).
B. Cell Culture • Stock T47 D cells are maintained in growth medium. […]
C. Cell Proliferation Assay • At the end of BrdU labeling, the medium is removed and BrdU incorporation is measured using a cell proliferation ELISA kit (#RPN 250, Amersham Life Science) according to manufacturer's instructions. […] L of 1 M sulfuric acid is added to each well to stop color reaction and optical density is read in a plate reader at 450 nm within 5 minutes.
D. Analysis of Results • Square root-transformed data are used for analysis of variance and nonlinear dose response curve fitting for both agonist and antagonist modes. […] EC50 or IC50 values are calculated from the retransformed values. […]
(Uptake of a labelled nucleoside into DNA is a usual measure of proliferation.)

Experiment [1] addresses T1, progesterone receptor (PR) (Homo sapiens, UniProt P06401).
T1 construct: endogenous in cells; host or cells: T47D cells
T1 sequence (P06401 1-933): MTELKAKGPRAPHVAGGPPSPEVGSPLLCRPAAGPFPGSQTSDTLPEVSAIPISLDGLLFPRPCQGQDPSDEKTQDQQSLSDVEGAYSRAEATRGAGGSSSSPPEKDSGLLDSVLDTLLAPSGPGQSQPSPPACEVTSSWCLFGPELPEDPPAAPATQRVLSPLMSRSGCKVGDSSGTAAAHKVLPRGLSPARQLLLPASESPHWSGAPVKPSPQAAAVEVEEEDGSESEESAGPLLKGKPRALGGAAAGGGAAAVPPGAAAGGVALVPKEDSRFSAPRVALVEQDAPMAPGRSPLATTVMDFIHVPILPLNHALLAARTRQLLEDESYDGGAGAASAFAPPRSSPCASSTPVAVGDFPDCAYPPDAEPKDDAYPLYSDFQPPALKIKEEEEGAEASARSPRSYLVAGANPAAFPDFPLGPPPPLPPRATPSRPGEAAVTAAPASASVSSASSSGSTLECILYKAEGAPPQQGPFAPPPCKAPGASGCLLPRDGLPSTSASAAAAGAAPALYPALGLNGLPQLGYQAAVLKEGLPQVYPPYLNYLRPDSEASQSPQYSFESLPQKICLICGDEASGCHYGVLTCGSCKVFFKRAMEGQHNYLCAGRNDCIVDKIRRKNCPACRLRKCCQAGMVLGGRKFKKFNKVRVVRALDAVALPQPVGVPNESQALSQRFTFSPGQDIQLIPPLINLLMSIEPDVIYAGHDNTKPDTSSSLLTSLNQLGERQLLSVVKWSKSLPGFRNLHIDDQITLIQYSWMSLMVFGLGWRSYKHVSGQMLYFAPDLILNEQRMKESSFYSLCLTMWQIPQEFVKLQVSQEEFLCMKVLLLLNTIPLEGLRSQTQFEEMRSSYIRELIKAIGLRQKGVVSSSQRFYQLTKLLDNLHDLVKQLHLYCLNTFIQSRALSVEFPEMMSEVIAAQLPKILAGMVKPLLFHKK
In words: T47D cell alkaline phosphatase assay. It counts as cell-based. As to conditions: for IC50: read-out: Alk. Phos. IC50; for inhibition at 3 µM: T47D, read-out: Alk. Phos. % inh @ 3 μM. As to the method:
(i) Purpose: To identify progestins or antiprogestins by determining a compound's effect on alkaline phosphatase activity in T47D cells.
A. Reagents • (i) Culture Medium: • DMEM:F12 (1:1) (GIBCO, BRL) supplemented with 5% (v/v) charcoal stripped fetal bovine serum (not heat-inactivated), 100U/mL penicillin, […] streptomycin, and 2 mM the GlutaMax™ reagent (GIBCO, BRL). • (ii) Alkaline phosphatase assay buffer: • I. 0.1 M Tris-HCl, pH 9.8, containing 0.2% the Triton™ X-100 reagent; • II. 0.1 M Tris-HCl, pH 9.8 containing 4 mM p-nitrophenyl phosphate (Sigma).
B. Cell Culture and Treatment • Frozen T47D cells were thawed in a 37° C. water bath and diluted to 280,000 cells/mL in culture medium. To each well in a 96-well plate (Falcon, Becton Dickinson Labware), 180 ? L of diluted cell suspension was added. Twenty ? L of reference or test compounds diluted in the culture medium was then added to each well. […] The cells were incubated at 37° C. in a 5% CO2/humidified atmosphere for 24 hours. • Note: For high throughput screening, one concentration of each compound was tested at 0.3 mg/mL. Based on an average molecular weight of 300 g/mol for the compounds in the library, the concentration was approximately 1 mM.
C. Alkaline Phosphatase Enzyme Assay • At the end of treatment, the medium was removed from the plate. Fifty ? L of assay buffer I was added to each well. The plates were shaken in a titer plate shaker for 15 minutes. Then 150 ? L of assay buffer II was added to each well.
Square root-transformed data were used for analysis of variance and nonlinear dose response curve fitting for both agonist and antagonist modes. Huber weighting was used to downweight the effects of outliers. EC50 or IC50 values were calculated from the retransformed values. JMP software (SAS Institute, Inc.) was used for both one-way analysis of variance and non-linear dose response analyses in both single dose and dose response studies.

The subject of experiment [2] is rat uterine decidualization. In words: Rat decidualization assay. It is filed as in vivo. As to conditions: for Estimated average EC50: s.c., average of dose-response curves, rat decidual response. As to the method:
C. […] The animals are treated once daily for seven days.
Uteri are removed and trimmed of fat.
Decidual response: [(D−C)/C]×100%

“And” between values parts separate entries of the source, which are not always exact repeats. Equal values may be shown once.

In general, EC50 refers to the concentration at which the effect is half-maximal. Regarding `C[C@H](O)C(=O)[C@@]1(C)CC[C@H]2[C@@H]3CCC4=CC(=O)CCC4=C3CC[C@@]21C` [Trimegestone], the EC50 in the experiment on T47D cells (half-maximal increase in BrdU incorporation in T47D cells, individual studies (Exp), read-out: Estimated EC50) was 0.017 nM and 0.014 nM and 0.019 nM.

By IC50 is commonly meant the concentration needed to halve the response being measured. With `CC1(C)C/C(=N\O)c2ccc(-c3ccc(Cl)c(Cl)c3)cc21` [Example 41, (1E)-5-(3,4-dichlorophenyl)-3,3-dimethylindan-1-one oxime], the IC50 in experiment [1] was determined as 456 nM.

On to `COc1cccc(-c2ccc3c(c2)C(C)(C)C/C3=N\O)c1` [Example 38, (1E)-5-(3-methoxyphenyl)-3,3-dimethylindan-1-one oxime], for which the inhibition at 3 µM in experiment [1] came out at 42%.

`CC1(C)C/C(=N\O)c2ccc(-c3cc(Cl)cc(Cl)c3)cc21` [Example 39, (1E)-5-(3,5-dichlorophenyl)-3,3-dimethylindan-1-one oxime]: in experiment [1], the inhibition at 3 µM came to 30%.

Consider `C#C[C@]1(O)CC[C@H]2[C@@H]3CCC4=CC(=O)CC[C@@H]4[C@H]3CC[C@@]21CC` [Levonorgestrel], for which the “Estimated average EC50” value in experiment [2] was 0.10 mg/kg.

Take `Cc1cccc(-c2ccc3c(c2)C(C)(C)C/C3=N\O)c1` [Example 37, (1E)-3,3-dimethyl-5-(3-methylphenyl)indan-1-one oxime]: in experiment [1], the inhibition at 3 µM came out at 65%.

For the compound `Cc1ccc(-c2ccc3c(c2)C(C)(C)C/C3=N\O)cc1` [Example 34, (1E)-3,3-dimethyl-5-(4-methylphenyl)indan-1-one oxime], the inhibition at 3 µM in experiment [1] was 68%.

As to `CC1(C)C/C(=N\O)c2ccc(-c3cccc(Cl)c3)cc21` [Example 36, (1E)-5-(3-chlorophenyl)-3,3-dimethylindan-1-one oxime], the inhibition at 3 µM in experiment [1] was determined as 70%.

Turning to `N#Cc1cccc(-c2ccc3c(c2)CC/C3=N\O)c1` [Example 6, 3-[(1E)-1-(hydroxyimino)-2,3-dihydro-1H-inden-5-yl]benzonitrile], the IC50 in experiment [1] was roughly 3000 nM.

`CC1(C)C/C(=N\O)c2ccc(-c3cccc(Cl)c3Cl)cc21` [Example 42, (1E)-5-(2,3-dichlorophenyl)-3,3-dimethylindan-1-one oxime]: the inhibition at 3 µM in experiment [1] came to 100%.

As to `CC1(C)C/C(=N\O)c2ccc(-c3ccc(Cl)cc3)cc21` [Example 33, (1E)-5-(4-chlorophenyl)-3,3-dimethylindan-1-one oxime], in experiment [1], the inhibition at 3 µM is 100%.

For the compound `COc1ccc(-c2ccc3c(c2)C(C)(C)C/C3=N\O)cc1` [Example 35, (1E)-5-(4-methoxyphenyl)-3,3-dimethylindan-1-one oxime], the inhibition at 3 µM in experiment [1] was determined as 63%.

In the case of `CC1C/C(=N\O)c2ccc(-c3ccc(C#N)n3C)cc21` (stereo not shown) [Example 3, 5-[(1E)-1-(hydroxyimino)-3-methyl-2,3-dihydro-1H-inden-5-yl]-1-methyl-1H-pyrrole-2-carbonitrile], in experiment [1], the concentration for half-maximal inhibition (IC50) stood at 65 nM.

For the compound `C#C[C@]1(O)CC[C@H]2[C@@H]3CCC4=CC(=O)CC[C@@H]4[C@H]3C(=C)C[C@@]21CC` [3-Ketodesogestrel], in experiment [2], the “Estimated average EC50” value is 0.10 mg/kg.

On to `CC1(C)C/C(=N\O)c2ccc(-c3ccccc3Cl)cc21` [Example 40, (1E)-5-(2-chlorophenyl)-3,3-dimethylindan-1-one oxime], for which, in experiment [1], the inhibition at 3 µM was determined as 62%.

In the case of `N#Cc1ccc(-c2ccc3c(c2)CC/C3=N\O)cc1` [Example 7, 4-[(1E)-1-(hydroxyimino)-2,3-dihydro-1H-inden-5-yl]benzonitrile], in experiment [1], the IC50 is roughly 1000 nM.

As for `Cn1c(C#N)ccc1-c1ccc2c(c1)CCC/C2=N\O` [Example 15, 5-[(5E)-5-(hydroxyimino)-5,6,7,8-tetrahydronaphthalen-2-yl]-1-methyl-1H-pyrrole-2-carbonitrile], the IC50 in experiment [1] turned out to be 32.6 nM.

As for `CC#C[C@]1(O)CC[C@H]2[C@@H]3CCC4=CC(=O)CCC4=C3[C@@H](c3ccc(N(C)C)cc3)C[C@@]21C` [RU486], the IC50 in the experiment on T47D cells (half-maximal decrease in 0.1 trimegestone induced BrdU incorporation in T47D cells, individual Exp, read-out: EC50 (Estimated IC50)) is 0.016 nM and 0.018 nM. The “Estimated IC50” value in experiment [2] (p.o., half-maximal decrease in EC50 progesterone induced decidual response, individual Exp) is 0.21 mg/kg and 0.14 mg/kg.
